The text below walks through data of US20210169911A1, “PURINE AND PYRIMIDINE NUCLEOTIDES AS ECTO-5'-NUCLEOTIDASE INHIBITORS” (The United States of America,as represented by the …, priority 2018, published 2021).

In the test the target is T1, recombinant soluble rat CD73 (Rattus norvegicus, UniProt P21588).
T1 sequence (P21588 29-551 limits assumed): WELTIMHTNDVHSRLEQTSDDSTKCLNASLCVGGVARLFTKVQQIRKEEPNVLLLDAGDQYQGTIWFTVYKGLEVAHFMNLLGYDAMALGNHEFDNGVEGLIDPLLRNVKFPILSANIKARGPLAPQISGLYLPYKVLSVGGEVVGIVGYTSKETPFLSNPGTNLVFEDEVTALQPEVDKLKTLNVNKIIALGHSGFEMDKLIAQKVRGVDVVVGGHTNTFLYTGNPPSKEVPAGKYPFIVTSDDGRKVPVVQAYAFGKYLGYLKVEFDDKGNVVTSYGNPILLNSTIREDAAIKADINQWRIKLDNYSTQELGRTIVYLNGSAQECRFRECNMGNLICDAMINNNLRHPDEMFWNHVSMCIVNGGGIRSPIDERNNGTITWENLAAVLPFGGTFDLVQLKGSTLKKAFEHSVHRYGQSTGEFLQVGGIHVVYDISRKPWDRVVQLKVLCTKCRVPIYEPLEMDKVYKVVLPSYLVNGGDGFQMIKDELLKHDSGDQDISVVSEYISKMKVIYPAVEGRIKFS
Kind of test: Radiometric rat ecto-5′-nucleotidase (CD73) assay with [3H]AMP. The following applies: for % inhibition at indicated concentration, rat CD73: initial screening concentration 1 μM.

[1] abbreviates: read-out: Ki ± SEM (nM), rat CD73, Table 3, recombinant soluble rat CD73, 5 μM [3H]AMP.

Where two headings read alike, the source gives them in different places. A value given as a limit tells only on which side of the number the result lay.

Method: After the enzymatic reaction, the substrate was separated from its product [2,8-^3H]adenosine by precipitation with lanthanum chloride followed by filtration through glass fiber filters (34). […] Ki values were calculated from the obtained IC50 values using the Cheng-Prusoff equation (6,7).
The assay was performed as previously described (41) using recombinant rat CD73 expressed in Sf9 insect cells (33). […] The mixture was incubated for 25 min at 37° C. The reaction was stopped by adding 500 μL of ice-cooled precipitation buffer containing 100 mM aqueous lanthanum chloride and 100 mM aqueous sodium acetate solution (pH 4.0). After 30 min, the precipitation was filtered through GF/B glass fiber filters (M-48, Brandel, Gaithersburg, Md., USA). After washing three times, 4 mL of the scintillation cocktail ULTIMA Gold XR was added and then quantified by scintillation counting (TRICARB 2900 TR, Packard/PerkinElmer). Three separate inhibition assays were performed in triplicate, concentration-response curves were fitted, and Ki values were calculated.
The assay was performed essentially as previously described.^D Stock solutions (10 mM) of the compounds were prepared in demineralized water and further dilutions were performed in assay reaction buffer (25 mM Tris, 140 mM sodium chloride, 25 mM sodium dihydrogen phosphate, pH 7.4). 10 μL of the inhibitor solution were added to 70 μL of assay reaction buffer. […] The enzymatic reaction was performed for 25 min at 37° C. in a shaking water bath. […] After the precipitation was completed (after at least 30 min on ice), the mixture was separated by filtration through GF/B glass fiber filters using a cell harvester (M-48, Brandel, Gaitherburg, Md., USA). After washing each reaction vial three times with 400 μl of cold (4° C.) demineralized water, 5 ml of the scintillation cocktail (ULTIMA Gold XR, PerkinElmer, MA, USA) was added and radioactivity was measured by scintillation counting (TRICARB 2900 TR, Packard/PerkinElmer; counting efficacy: 49-52%). Two controls were included and measured as duplicates. One reaction was performed without the inhibitor resulting in 100% enzyme activity (positive control) and one was incubated without the inhibitor and the enzyme and served as background control. The resulting data were subtracted from the background and were normalized with to the positive control. The results were plotted, and concentration-inhibition curves were fitted with GraphPad Prism 5 (GraphPad Software, La Jolla, USA).
After 30 min, the precipitation was filtered through GF/B glass fiber filters (M-48, Brandel, Gaithersburg, Md., USA). After washing three times, 4 mL of the scintillation cocktail ULTIMA Gold XR was added and then quantified by scintillation counting (TRICARB 2900 TR, Packard/PerkinElmer). Three separate inhibition assays were performed in triplicate, concentration-response curves were fitted, and K, values were calculated.

For orientation: % inhibition means the change of the read-out against control, counted positive when it falls. As usually defined, the Ki is the equilibrium dissociation constant of an inhibitor or competing ligand from its target. Turning to `Nc1ccnc2c1ncn2[C@@H]1O[C@H](COP(=O)(O)CP(=O)(O)O)[C@@H](O)[C@H]1O` [Compound 2e, 1-Deazaadenosine-5′-O-[(phosphonomethyl)phosphonic acid]], the “% inhibition at indicated concentration, rat CD73” value (Table 3) is on record as 36%. Also, the Ki under setting [1] is above 1000 nM.
Turning to `Nc1ncnc2c1ncn2[C@@H]1O[C@H](COP(=O)(O)CP(=O)(O)O)[C@@H](O)[C@H]1O` [I, reference compound], the Ki under setting [1] came out at 167 ± 53 nM.
Turning to `CCn1c(=O)n([C@@H]2O[C@H](COP(=O)(O)CP(=O)(O)O)[C@@H](O)[C@H]2O)cc/c1=N/OCc1ccccc1` [Compound 9i, N^4-[O-(4-Benzyloxy)]-3-ethyl-cytidine-5′-O-[(phosphonomethyl)phosphonic acid]], the inhibitory constant (Ki) is 262 ± 46 nM.
For the compound `Nc1ncnc2c1ccn2[C@@H]1O[C@H](COP(=O)(O)CP(=O)(O)O)[C@@H](O)[C@H]1O` [Compound 2g, 7-Deazaadenosine-5′-O-[(phosphonomethyl)phosphonic acid]], the Ki under setting [1] stood at 88.6 ± 4 nM.
In the case of `Nc1nccc2c1ncn2[C@@H]1O[C@H](COP(=O)(O)CP(=O)(O)O)[C@@H](O)[C@H]1O` [Compound 2f, 3-Deazaadenosine-5′-O-[(phosphonomethyl)phosphonic acid]], the “% inhibition at indicated concentration, rat CD73” value (Table 3) is given as 36%. Under setting [1], the Ki was above 1000 nM.
